In ChEMBL document CHEMBL5550137 (Bioorg Med Chem Lett, 2024):
In brackets after ≈: the same amount, converted by molar mass.

Key:
Cytochrome P450 1B1 [1] = target: T1, Cytochrome P450 1B1 (Homo sapiens, UniProt Q16678); assay: Inhibition of recombinant human CYP1B1 using 7-ER as substrate in presence of NADPH by fluorescence based assay
T1 sequence (Q16678 whole entry): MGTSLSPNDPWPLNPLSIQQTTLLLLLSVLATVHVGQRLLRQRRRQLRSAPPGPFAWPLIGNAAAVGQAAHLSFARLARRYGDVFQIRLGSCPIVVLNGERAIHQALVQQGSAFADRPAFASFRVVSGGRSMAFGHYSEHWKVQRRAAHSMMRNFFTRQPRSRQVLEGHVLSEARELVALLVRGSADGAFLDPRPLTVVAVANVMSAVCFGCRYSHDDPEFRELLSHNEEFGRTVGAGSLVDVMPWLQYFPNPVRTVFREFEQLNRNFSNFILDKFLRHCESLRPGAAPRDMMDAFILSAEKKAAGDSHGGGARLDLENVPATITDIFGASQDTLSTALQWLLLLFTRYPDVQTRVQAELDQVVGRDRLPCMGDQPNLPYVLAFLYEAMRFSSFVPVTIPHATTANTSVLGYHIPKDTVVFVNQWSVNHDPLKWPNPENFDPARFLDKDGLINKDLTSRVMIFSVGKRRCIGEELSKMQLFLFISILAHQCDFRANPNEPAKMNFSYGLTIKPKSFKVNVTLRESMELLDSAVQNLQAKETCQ

[2] = Solubility in water by HPLC-UV analysis; type: physicochemical
NCI-H460 = assay: Anti-cancer activity of human PTX-resistant NCI-H460 cells incubated for 48 hrs by CCK8 assay; type: functional, cell-based; conditions: NCI-H460, 48 h
Cytochrome P450 1B1 [3] = target: T1, Cytochrome P450 1B1; assay: Inhibition of recombinant human CYP1B1 using 7-ER as substrate measured after 33 mins in presence of NADPH by fluorescence based assay; conditions: 0.55 h
Cytochrome P450 1B1 [4] = target: T1, Cytochrome P450 1B1; assay: Mixed inhibition of recombinant human CYP1B1 using 7-ER as substrate in presence of NADPH by fluorescence based assay
HEK-293T = assay: Cytotoxicity against HEK293T cells expressing AhR/luc incubated for 48 hrs by CCK8 assay; type: toxicity, cell-based; conditions: human
Cytochrome P450 1B1 [5] = target: T1, Cytochrome P450 1B1; assay: Inhibition of human CYP1B1 over-expressed in CHO cells preincubated for 3 hrs followed media replacement containing estradiol without compound measured after 3 hrs; type: cell-based

| IC50 (Cytochrome P450 1B1 [1]) | Compound | further results |
| --- | --- | --- |
| 7.99 nM | O=C1c2cccc3c(Br)ccc(c23)C(=O)N1CC1CCCCC1 |  |
| 173 nM | O=C1c2cccc3c(Br)ccc(c23)C(=O)N1Cc1c[nH]cn1 |  |
| 36.7 nM | O=C1c2cccc3c(Br)ccc(c23)C(=O)N1Cc1nccs1 |  |
| 3.64 nM | O=C1c2cccc3c(Br)ccc(c23)C(=O)N1CC1CCC1 |  |
| 91.7 nM | O=C1c2cccc3c(Br)ccc(c23)C(=O)N1Cc1ncccn1 |  |
| 1.95 nM | O=C1c2cccc3c(Br)ccc(c23)C(=O)N1Cc1ccccc1 |  |
| 3.42 nM | O=C1c2cccc3c(Br)ccc(c23)C(=O)N1Cc1cccs1 |  |
| 5.63 nM | CCN1C(=O)c2cccc3c(Br)ccc(c23)C1=O | solubility [2]: 103 µg/mL (≈ 340 µM) |
| 148 nM | O=C1c2cccc3c(Br)ccc(c23)C(=O)N1Cc1ccccn1 |  |
| 3.52 nM | CCN1C(=O)c2cccc3ccc(Br)c(c23)C1=O |  |
| 57.3 nM | O=C1c2cccc3c(Br)ccc(c23)C(=O)N1CCCCc1ccccc1 |  |
| 19.2 nM | O=C1c2cccc3c(Br)ccc(c23)C(=O)N1CC1CC1 |  |
| 31 nM | O=C1c2cccc3c(Br)ccc(c23)C(=O)N1Cc1ncco1 |  |
| 30 nM | O=C1c2cccc3c(Br)ccc(c23)C(=O)N1Cc1ccc2ncccc2c1 |  |
| 1.81 nM | O=C1c2cccc3c(Br)ccc(c23)C(=O)N1Cc1cccnc1 |  |
| 156 nM | O=C1c2cccc3c(Br)ccc(c23)C(=O)N1Cc1cnccn1 |  |
|  | Cl.O=C1c2cccc3c(Br)ccc(c23)C(=O)N1Cc1cncnc1 | solubility [2]: 262 µg/mL |
| 56.6 nM | O=C1c2cccc3c(O)ccc(c23)C(=O)N1Cc1cncnc1 |  |

| IC50 (Cytochrome P450 1B1 [1]) | Compound | further results |
| --- | --- | --- |
| > 1000 nM | O=C1c2cccc3c(Br)ccc(c23)C(=O)N1CC1CN(Cc2ccccc2)CCO1 (stereo unspecified) |  |
| > 1000 nM | CCN1C(=O)c2cccc3c(O)ccc(c23)C1=O |  |
| 1.42 nM | O=C1c2cccc3c(Br)ccc(c23)C(=O)N1Cc1ccncc1 |  |
| 5.36 nM | O=C1c2cccc3c(Br)ccc(c23)C(=O)N1CCc1ccccc1 |  |
|  | CC(=O)O[C@H]1C(=O)[C@@]2(C)[C@H]([C@H](OC(=O)c3ccccc3)[C@]3(O)C[C@H](OC(=O)[C@H](O)[C@@H](NC(=O)c4ccccc4)c4ccccc4)C(C)=C1C3(C)C)[C@]1(OC(C)=O)CO[C@@H]1C[C@@H]2O [PACLITAXEL] | IC50 (NCI-H460): 633 nM |
| 0.39 nM | O=C1c2cccc3c(Br)ccc(c23)C(=O)N1Cc1ccc[nH]1 |  |
| 221 nM | O=C1c2cccc3cccc(c23)C(=O)N1Cc1cncnc1 |  |
| 5.32 nM | CCN1C(=O)c2cccc3cc(Br)cc(c23)C1=O |  |
| 11.7 nM | O=C1c2cccc3c(Br)ccc(c23)C(=O)N1CC1CCCC1 |  |
| 42.3 nM | O=C1c2cccc3c(Br)ccc(c23)C(=O)N1Cc1ccon1 |  |
| 0.04 nM | O=C1c2cccc3c(Br)ccc(c23)C(=O)N1Cc1cncnc1 | inhibition (INH) (Cytochrome P450 1B1 [3]): Not Active; Ki (Cytochrome P450 1B1 [4]): 0.0217 nM; Activity (HEK-293T): Non-Toxic; IC50 (Cytochrome P450 1B1 [5]): 0.47 nM |
| 0.21 nM | O=C1c2cccc3c(Br)ccc(c23)C(=O)N1Cc1cn[nH]c1 |  |
| 22.7 nM | O=C1c2cccc3c(Br)ccc(c23)C(=O)N1Cc1ccncn1 |  |
| 12 nM | O=C1c2cccc3c(Br)ccc(c23)C(=O)N1CC1Oc2ccccc2O1 |  |
| 605 nM | CCN1C(=O)c2cccc3cccc(c23)C1=O |  |
| 17.6 nM | O=C1c2cccc3c(Br)ccc(c23)C(=O)N1Cc1cc[nH]n1 |  |
| 67.1 nM | Nc1ccc2c3c(cccc13)C(=O)N(Cc1cncnc1)C2=O |  |
| 16.8 nM | O=C1c2cccc3c(Br)ccc(c23)C(=O)N1CCCc1ccccc1 |  |
